Here are results for eight molecules from ChEMBL document CHEMBL5346957, “Enantioselective Synthesis and Biological Evaluation of Pyrrolidines Bearing Quaternary Stereogenic Centers” (J Med Chem, 2023).

One data set concerns A549. Nature of the data set: Antiproliferative activity against human A549 cells incubated for 72 hrs measured by MTT assay. The class given is functional, cell-based. To be noted: A549, 72 h.
The subject of the next data set is PC-3. Nature of the data set: Antiproliferative activity against human PC-3 cells incubated for 72 hrs measured by MTT assay. The conditions noted are these: PC-3, 72 h. The class given is functional, cell-based.
Data set [1] deals with A-375. In words: Antiproliferative activity against human A-375 cells incubated for 72 hrs measured by MTT assay. The conditions noted are these: A-375, 72 h. It is filed as functional, cell-based.
For a further data set, the system named is MDA-MB-231. Nature of the data set: Antiproliferative activity against human MDA-MB-231 cells incubated for 72 hrs measured by MTT assay. The class given is functional, cell-based. To be noted: MDA-MB-231, 72 h.
The next data set has as its system HeLa. Nature of the data set: Antiproliferative activity against human HeLa cells incubated for 72 hrs measured by MTT assay. The class given is functional, cell-based.
In the next data set the test system is HepG2. In words: Antiproliferative activity against human HepG2 cells incubated for 72 hrs measured by MTT assay. To be noted: HepG2, 72 h. The class given is functional, cell-based.
Another data set relates to HCT-116. In words: Antiproliferative activity against human HCT-116 cells incubated for 72 hrs measured by MTT assay. The conditions noted are these: HCT-116, 72 h. The class given is functional, cell-based.
Another data set concerns MIA PaCa-2. In words: Antiproliferative activity against human MIA PaCa-2 cells incubated for 72 hrs measured by MTT assay. The class given is functional, cell-based. To be noted: MIA PaCa-2, 72 h.
Data set [2] in a line: Cytotoxicity against human BEAS-2B cells incubated for 72 hrs measured by MTT assay. The class given is toxicity, cell-based.
In data set [3] the test system is A-375. In words: Effect on mitotic progression in human A-375 cells assessed as mitotic index at 0.5 uM measured by flow cytometric analysis (reference value: 3.22%). The class given is functional.
The subject of data set [4] is A-375. In words: Effect on mitotic progression in human A-375 cells assessed as mitotic index at 1 uM measured by flow cytometric analysis (reference value: 3.22%). It is filed as functional.
Data set [5] concerns A-375. Nature of the data set: Effect on mitotic progression in human A-375 cells assessed as mitotic index at 2 uM measured by flow cytometric analysis (reference value: 3.22%). It is filed as functional.
The subject of data set [6] is A-375. In words: Effect cycle arrest in human A-375 cells assessed as accumulation of cells in G2/M phase at 0.5 uM measured by flow cytometric analysis (reference value: 26.76%). It is filed as functional.
Data set [7] concerns A-375. Nature of the data set: Effect cycle arrest in human A-375 cells assessed as accumulation of cells in G2/M phase at 1 uM measured by flow cytometric analysis (reference value: 26.76%). It is filed as functional.
Data set [8] has as its system A-375. In words: Effect cycle arrest in human A-375 cells assessed as accumulation of cells in G2/M phase at 2 uM measured by flow cytometric analysis (reference value: 26.76%). The class given is functional.
Data set [9] concerns A-375. In words: Induction of apoptosis in human A-375 cells assessed as early apoptotic cells at 0.5 uM measured by annexin V/PI based flow cytometric analysis (reference value: 9.78%). The class given is functional.
Data set [10] relates to A-375. Nature of the data set: Induction of apoptosis in human A-375 cells assessed as early apoptotic cells at 1 uM measured by annexin V/PI based flow cytometric analysis (reference value: 9.78%). The class given is functional.
The test system of data set [11] is A-375. Nature of the data set: Induction of apoptosis in human A-375 cells assessed as early apoptotic cells at 2 uM measured by annexin V/PI based flow cytometric analysis (reference value: 9.78%). It is filed as functional.
Data set [12] relates to A-375. In words: Induction of apoptosis in human A-375 cells assessed as late apoptotic cells at 0.5 uM measured by annexin V/PI based flow cytometric analysis (reference value: 1.07%). The class given is functional.
Data set [13] deals with A-375. Nature of the data set: Induction of apoptosis in human A-375 cells assessed as late apoptotic cells at 1 uM measured by annexin V/PI based flow cytometric analysis (reference value: 1.07%). It is filed as functional.
In data set [14] the test system is A-375. Nature of the data set: Induction of apoptosis in human A-375 cells assessed as late apoptotic cells at 2 uM measured by annexin V/PI based flow cytometric analysis (reference value: 1.07%). The class given is functional.
The subject of data set [15] is A-375. In words: Induction of apoptosis in human A-375 cells assessed as apoptotic cells at 0.5 uM measured by annexin V/PI based flow cytometric analysis (reference value: 10.8%). It is filed as functional.
In data set [16] the test system is A-375. In words: Induction of apoptosis in human A-375 cells assessed as apoptotic cells at 1 uM measured by annexin V/PI based flow cytometric analysis (reference value: 10.8%). The class given is functional.
Data set [17] has as its system A-375. Nature of the data set: Induction of apoptosis in human A-375 cells assessed as apoptotic cells at 2 uM measured by annexin V/PI based flow cytometric analysis (reference value: 10.8%). The class given is functional.
Another data set concerns the target T1, Aurora kinase A (Homo sapiens, UniProt O14965).
T1 sequence (O14965 whole entry): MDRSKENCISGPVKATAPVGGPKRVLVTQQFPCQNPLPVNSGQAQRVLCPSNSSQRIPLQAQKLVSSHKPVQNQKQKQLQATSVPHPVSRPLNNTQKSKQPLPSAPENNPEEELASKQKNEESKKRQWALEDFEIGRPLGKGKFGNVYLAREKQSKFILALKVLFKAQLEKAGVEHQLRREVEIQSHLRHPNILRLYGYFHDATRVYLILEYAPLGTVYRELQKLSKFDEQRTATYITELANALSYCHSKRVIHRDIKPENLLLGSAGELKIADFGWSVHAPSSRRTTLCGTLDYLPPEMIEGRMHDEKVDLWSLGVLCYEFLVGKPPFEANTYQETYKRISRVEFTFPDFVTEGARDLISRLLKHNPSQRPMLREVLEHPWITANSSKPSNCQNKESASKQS
In words: Inhibition of Aurora A (unknown origin) incubated for 1 hr by microplate reader analysis.

The next data set deals with Aurora kinase B (Homo sapiens, UniProt Q96GD4). Nature of the data set: Inhibition of Aurora B (unknown origin) incubated for 1 hr by microplate reader analysis.
Aurora kinase B, sequence (Q96GD4 whole entry): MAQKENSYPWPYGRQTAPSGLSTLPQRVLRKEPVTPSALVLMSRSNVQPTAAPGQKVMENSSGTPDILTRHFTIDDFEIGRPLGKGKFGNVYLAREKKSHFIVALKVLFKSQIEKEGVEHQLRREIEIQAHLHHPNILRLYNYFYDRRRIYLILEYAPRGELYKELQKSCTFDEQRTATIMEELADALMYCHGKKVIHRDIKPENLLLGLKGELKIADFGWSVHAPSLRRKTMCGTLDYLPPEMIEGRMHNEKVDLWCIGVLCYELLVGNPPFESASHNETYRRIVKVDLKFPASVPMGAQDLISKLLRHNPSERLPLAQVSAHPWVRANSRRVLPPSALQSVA
A further data set has as its target T2, Aurora kinase C (Homo sapiens, UniProt Q9UQB9).
T2 sequence (Q9UQB9 whole entry): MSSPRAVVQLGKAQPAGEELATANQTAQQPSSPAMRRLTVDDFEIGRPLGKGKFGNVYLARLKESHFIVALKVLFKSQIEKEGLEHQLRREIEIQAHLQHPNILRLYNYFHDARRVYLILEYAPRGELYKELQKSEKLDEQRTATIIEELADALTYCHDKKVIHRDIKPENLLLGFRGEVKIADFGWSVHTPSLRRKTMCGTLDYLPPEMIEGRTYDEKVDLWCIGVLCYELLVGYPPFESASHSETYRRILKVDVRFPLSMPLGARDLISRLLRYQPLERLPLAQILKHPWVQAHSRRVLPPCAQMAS
Nature of the data set: Inhibition of Aurora C (unknown origin) incubated for 1 hr by microplate reader analysis.

Data set [18] has as its target T3, Aurora kinase A (Homo sapiens) (UniProt O14965).
T3 sequence (whole entry): T1 sequence (O14965 whole entry)
Nature of the data set: Inhibition of Aurora A (unknown origin) assessed as downregulation of kinase phosphorylation at 0.5 to 2 uM by Western blot analysis. To be noted: dose 0.5-2 µM.

Active and inactive are the calls of the source. The calls are words filed in the database; no cut-off is given here. A value given as a limit tells only on which side of the number the result lay.

For `CCOc1ccc([C@@H]2[C@@](C)([N+](=O)[O-])[C@@H](c3ccccc3)N[C@@]2(C)C(=O)OC)cc1`, the IC50 was 49.2 µM in the data set with A549; 32.5 µM in the data set on PC-3; 26.8 µM with A-375 [1]; 34.7 µM in the data set on MDA-MB-231; 82.8 µM in the data set with HeLa; over 100 µM in the data set on HepG2. Further, the concentration for half-maximal inhibition (IC50) with HCT-116 was 74.7 µM; in the data set with MIA PaCa-2, over 100 µM. Also, the IC50 at 72 h in data set [2] was over 100 µM.
Consider `CCOc1ccc([C@H]2[C@H]([N+](=O)[O-])[C@H](c3ccccc3)N[C@]2(C)C(=O)OC)cc1`, for which the IC50 with A549, with PC-3, with A-375 [1], in the data set on MDA-MB-231, in the data set on HeLa and with HepG2 was over 100 µM each time. In addition, the IC50 in the data set on HCT-116 and in the data set on MIA PaCa-2 was over 100 µM each time. The molecule also yielded an IC50 at 72 h in [2] of over 100 µM.
Take `CCOc1ccc([C@H]2[C@H]([N+](=O)[O-])[C@H](c3ccccc3)N[C@@H]2C(=O)OC)cc1`: the concentration for half-maximal inhibition (IC50) in the data set with A549, with PC-3, with A-375 [1], in the data set on MDA-MB-231, in the data set on HeLa and in the data set with HepG2 was over 100 µM each time. The concentration for half-maximal inhibition (IC50) with HCT-116 and in the data set with MIA PaCa-2 was over 100 µM in each case. Moreover, the IC50 at 72 h in data set [2] is over 100 µM.
Consider `CCOc1ccc([C@@H]2[C@@H](C(=O)OC)N[C@@H](c3ccccc3)[C@@]2(C)[N+](=O)[O-])cc1`, for which the IC50 with A549 was 11.5 µM; in the data set with PC-3 it was 14 µM; with A-375 [1] it was 7.42 µM; with MDA-MB-231 it was 16.8 µM; in the data set on HeLa, 16.5 µM; in the data set on HepG2, 29 µM. The IC50 was 12.4 µM in the data set with HCT-116 and 21.4 µM in the data set with MIA PaCa-2. For the same molecule, the IC50 at 72 h in [2] was over 100 µM.
On to `CCOc1ccc([C@H]2[C@](C)([N+](=O)[O-])[C@H](c3ccccc3)N[C@]2(C)C(=O)OC)cc1`, for which the IC50 with A549 turned out to be 0.51 µM; in the data set with PC-3, 0.4 µM; in the data set with A-375 [1], 0.24 µM; in the data set with MDA-MB-231, 0.43 µM; in the data set on HeLa, 0.96 µM; in the data set with HepG2 it was 1.67 µM. The IC50 in the data set on HCT-116 was 0.73 µM; in the data set with MIA PaCa-2, 1.07 µM; at Aurora kinase A, 0.284 µM; against Aurora kinase B, “Not Active”; against Aurora kinase C it was “Not Active”. The IC50 at 72 h in data set [2] was over 100 µM. The Activity with A-375 [3] is on record as 6.24%; in the data set with A-375 [4], 10.82%; in the data set on A-375 [5], 18.51%; in the data set with A-375 [6], 32.73%; with A-375 [7], 54.46%; with A-375 [8] it was 68.69%. Further, the Activity is reported as 13.5% in the data set on A-375 [9]; 20.4% with A-375 [10]; 19.8% in the data set on A-375 [11]; 9.23% in the data set on A-375 [12]; 14.6% in the data set on A-375 [13]; 17.8% in the data set with A-375 [14]. Moreover, the Activity was determined as 22.7% with A-375 [15], 35% in the data set on A-375 [16] and 37.6% with A-375 [17]. Further, the inhibition entry in data set [18] was “Active”.
In the case of `CCOc1ccc([C@@H]2[C@@H]([N+](=O)[O-])[C@@H](c3ccccc3)N[C@@]2(C)C(=O)OC)cc1`, the IC50 in the data set with A549, with PC-3, with A-375 [1], in the data set with MDA-MB-231, in the data set with HeLa and with HepG2 was over 100 µM in each case. Further, the IC50 with HCT-116 and in the data set with MIA PaCa-2 was over 100 µM each time. In data set [2], this molecule came in with an IC50 at 72 h of over 100 µM.
Regarding `CCOc1ccc([C@@H]2[C@@H]([N+](=O)[O-])[C@@H](c3ccccc3)N[C@H]2C(=O)OC)cc1`, the IC50 in the data set with A549, in the data set with PC-3, with A-375 [1], in the data set with MDA-MB-231, in the data set on HeLa and with HepG2 was over 100 µM each time. Moreover, the IC50 in the data set on HCT-116 and with MIA PaCa-2 was over 100 µM throughout. In addition, the IC50 at 72 h in data set [2] is over 100 µM.
Turning to `CCOc1ccc([C@H]2[C@H](C(=O)OC)N[C@H](c3ccccc3)[C@]2(C)[N+](=O)[O-])cc1`, the IC50 in the data set on A549, in the data set on PC-3, in the data set on A-375 [1], in the data set with MDA-MB-231, in the data set with HeLa and in the data set on HepG2 was over 100 µM in each case. The IC50 in the data set with HCT-116 and in the data set with MIA PaCa-2 was over 100 µM in each case. Further, the IC50 at 72 h in [2] was over 100 µM.
